According to US20240139210A1, “TREATMENT OF NF-KB-MEDIATED DISEASE” (ReveraGen BioPharma, Inc., priority 2020, published 2024):

Legend:
[1] = test system: participants with DMD; assay: VBP15-LTE prespecified safety evaluation: height percentile for age and BMI; assay type: in vivo, human
Experimental: Standing height and weight were assessed at each study visit. Height z-score, body mass index (BMI; kg/m 2), and BMI z-score were calculated centrally. AE reporting was done per protocol in the vamorolone trials.
Participants in the corticosteroid-treated CINRG DNHS group were treated for at least 18 months, but the total duration, dose, and regimens varied.
Statistical analyses were done on paired longitudinal outcome data using an analysis of covariance (ANCOVA) approach with change from baseline (VBP15-002) to month 18 (midpoint of VBP15-LTE). Baseline response and age were included as covariates. For the vamorolone-treated participants, age was calculated as (date of informed consent minus birthdate)/365.25. For the DNHS participants, age was calculated as (date of baseline visit used minus birthdate)/365.25. The baseline visit for a DNHS participant was the first visit. […] Timed function tests were analyzed as velocity scores to limit the impact of participants who could not perform the test (velocity=0). Velocity measures are variance-stabilizing transformations, suppressing extreme raw outliers from raw values in seconds; these help with distributional assumptions of the statistical models/tests used. Raw data (seconds) are also reported. Velocity scores for TTSTAND (event/second), TTRW (meters/second), and TTCLIMB (event/second) were inputted as 0 at the first response missing due to inability to perform the test. All other data were observed values only, without imputation. No adjustments for multiplicity on inferential statistics were specified in the iSAP.

[2] = test system: ambulant boys aged 4 to <7 years with DMD; assay: VBP15-004 bone turnover biomarkers; assay type: in vivo, human; details: for CTX, difference vs. prednisone / Osteocalcin, difference vs. prednisone / P1NP, difference vs. prednisone: Week 24
[3] = test system: ambulant boys aged 4 to <7 years with DMD; assay: VBP15-004 adverse events; parameters: species or system human; details: in vivo
Text: The second period of 24 weeks, where all participants receive vamorolone treatment on either of the two dose levels, will continue to capture additional longer-term safety and tolerability data.
The study completion rate at 24 weeks was 94% (or 114 of 121 participants).
Pre-specified AESIs typically for corticosteroids were higher in prednisone-treated subjects than vamorolone-treated subjects after 24 weeks of treatment (Table 10).

[4] = 2.0 or 6.0 mg/kg/day for 18 months (groups C+D)
[5] = vamorolone 18 months versus corticosteroid-naïve DNHS

Compound: C[C@@H]1C[C@H]2[C@@H]3CCC4=CC(=O)C=C[C@]4(C)C3=CC[C@]2(C)[C@@]1(O)C(=O)CO [Vamorolone, 17α,21-dihydroxy-16α-methylpregna-1,4,9(11)-triene-3,20-dione]
- Mean BMI z-score, 18-month value (SD) [1, 4]: 1.46 (0.62)
- Mean BMI z-score, change from baseline (SD) [1, 4]: 0.411 (0.615)
- Mean height percentile for age, 18-month value (SD) [1, 4]: 35.24 percentile
- Mean BMI z-score, change from baseline (SD) ([1]; 2.0 or 6.0 mg/kg/day for 18 months (groups C+D), listed as vamorolone): 0.41
- LS Mean change in height percentiles for age ([1]; DMD children, N 22, 18 months treatment): +6.9
- BMI change from baseline to 18 months of treatment ([1]; original dose group B (0.75 mg/kg/day, escalated)): 0.5 kg/m 2
- BMI change from baseline to 18 months of treatment ([1]; original dose group C (2.0 mg/kg/day)): 1.11 kg/m 2
- BMI change from baseline to 18 months of treatment ([1]; original dose group D (6.0 mg/kg/day)): 2.55 kg/m 2
- Mean BMI z-score, LS mean difference (SE), ANCOVA [1, 5]: 0.899 (0.204)
- Mean height percentile for age, LS mean difference (SE), ANCOVA [1, 5]: 6.72 (3.48) percentile
- Osteocalcin, mean (SEM) change at Week 24 ([2]; Vamorolone 2.0 mg (N = 17)): 8.3 (3.1) ng/ml
- Procollagen 1 N-Terminal Propeptide (P1NP), mean (SEM) change at Week 24 ([2]; Vamorolone 2.0 mg (N = 17)): 48 (27) ng/mL
- Type I Collagen C-Telopeptides (CTX), mean (SEM) change at Week 24 ([2]; Vamorolone 2.0 mg (N = 17)): 177 (52) pg/mL
- CTX, difference vs. prednisone ([2]; Vamorolone 2.0 mg): 477 (p < 0.001) pg/mL
- Osteocalcin, difference vs. prednisone ([2]; Vamorolone 2.0 mg): 23.5 ng/mL
- P1NP, difference vs. prednisone ([2]; Vamorolone 2.0 mg): 182 ng/mL
- Osteocalcin, mean (SEM) change at Week 24 ([2]; Vamorolone 6.0 mg (N = 23)): 1.7 (2.8) ng/ml
- Procollagen 1 N-Terminal Propeptide (P1NP), mean (SEM) change at Week 24 ([2]; Vamorolone 6.0 mg (N = 23)): −11 (22) ng/mL
- Type I Collagen C-Telopeptides (CTX), mean (SEM) change at Week 24 ([2]; Vamorolone 6.0 mg (N = 23)): 90 (44) pg/mL
- CTX, difference vs. prednisone ([2]; Vamorolone 6.0 mg): 390 (p < 0.001) pg/mL
- Osteocalcin, difference vs. prednisone ([2]; Vamorolone 6.0 mg): 16.9 ng/mL
- P1NP, difference vs. prednisone ([2]; Vamorolone 6.0 mg): 124 (p < 0.001) ng/mL
- clinically relevant psychiatric events, subjects [3]: no vamorolone-treated subjects
- moderate/severe behavior problems, subjects ([3]; male, human, 24 weeks): 1.7%
